Assay results from ChEMBL document CHEMBL1201862, “PubChem BioAssay data set” (2004).
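Test compounds were applied to cells in 96-well plates for 48 hours at 5 doses. Here, GI50 denotes the concentration required for 50% inhibition of growth.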 Active and inactive are the calls of the source. Rule as the data show it: active = GI50 up to about 1.1 µM and inactive = higher.

Legend:
Assay in all cases: inhibition of tumour cell growth, NCI panel, 48 h
786-0 = tested on: 786-0
COLO 205 = tested on: COLO 205
HOP-62 = tested on: HOP-62
HT-29 = tested on: HT-29
IGROV-1 = tested on: IGROV-1
M14 = tested on: M14
MCF7 = tested on: MCF7
NCI-H23 = tested on: NCI-H23
OVCAR-3 = tested on: OVCAR-3
OVCAR-4 = tested on: OVCAR-4
OVCAR-8 = tested on: OVCAR-8
RPMI-8226 = tested on: RPMI-8226
SK-MEL-5 = tested on: SK-MEL-5
SNB-19 = tested on: SNB-19
SR = tested on: SR
T47D = tested on: T47D
UACC-62 = tested on: UACC-62
KM12 = tested on: KM12
SK-OV-3 = tested on: SK-OV-3

| SMILES | GI50 (786-0) | GI50 (COLO 205) | GI50 (HOP-62) | GI50 (HT-29) | GI50 (IGROV-1) | GI50 (M14) | GI50 (MCF7) | GI50 (NCI-H23) | GI50 (OVCAR-3) | GI50 (OVCAR-4) | GI50 (OVCAR-8) | GI50 (RPMI-8226) | GI50 (SK-MEL-5) | GI50 (SNB-19) | GI50 (SR) | GI50 (T47D) | GI50 (UACC-62) | GI50 (KM12) | GI50 (SK-OV-3) |
| --- | --- | --- | --- | --- | --- | --- | --- | --- | --- | --- | --- | --- | --- | --- | --- | --- | --- | --- | --- |
| CCOC(=O)N1CCNCCN(C(=O)OCC)CCNCC1 | > 100 µM (inactive) | > 100 µM (inactive) | > 100 µM (inactive) | > 100 µM (inactive) | > 100 µM (inactive) | > 100 µM (inactive) | > 100 µM (inactive) | > 100 µM (inactive) | > 100 µM (inactive) | > 100 µM (inactive) | > 100 µM (inactive) | > 100 µM (inactive) | > 100 µM (inactive) | > 100 µM (inactive) | > 100 µM (inactive) | > 100 µM (inactive) | > 100 µM (inactive) | – | – |
| CCOP(=O)(OCC)[C@H](O)c1ccsc1 | > 100 µM (inactive) | > 100 µM (inactive) | > 100 µM (inactive) | > 100 µM (inactive) | > 100 µM (inactive) | > 100 µM (inactive) | > 100 µM (inactive) | > 100 µM (inactive) | – | > 100 µM (inactive) | > 100 µM (inactive) | > 100 µM (inactive) | > 100 µM (inactive) | > 100 µM (inactive) | > 100 µM (inactive) | > 100 µM (inactive) | > 100 µM (inactive) | > 100 µM (inactive) | > 100 µM (inactive) |
| COc1ccccc1NC1=NCC(C)S1 (configuration not stated) | > 100 µM (inactive) | > 100 µM (inactive) | > 100 µM (inactive) | > 100 µM (inactive) | > 100 µM (inactive) | > 100 µM (inactive) | > 100 µM (inactive) | > 100 µM (inactive) | > 100 µM (inactive) | – | > 100 µM (inactive) | > 100 µM (inactive) | > 100 µM (inactive) | > 100 µM (inactive) | > 100 µM (inactive) | > 100 µM (inactive) | > 100 µM (inactive) | > 100 µM (inactive) | > 100 µM (inactive) |
| COC(=O)C1(Cc2ccc3c(c2)CCC3)Cc2ccc3c(c2C1O)CCC3 (configuration not stated) | 14.7 µM (inactive) | 12.9 µM (inactive) | 14.7 µM (inactive) | 15.2 µM (inactive) | > 10 µM (inactive) | – | 12.9 µM (inactive) | > 10 µM (inactive) | 13.8 µM (inactive) | 5.79 µM (inactive) | 17.3 µM (inactive) | 17 µM (inactive) | 10.2 µM (inactive) | – | 12 µM (inactive) | 8.81 µM (inactive) | 15.5 µM (inactive) | 14.8 µM (inactive) | 18.5 µM (inactive) |
| Cc1cc2nc(-c3c(F)cccc3F)n(Cc3c(F)cccc3F)c2cc1C | 17.9 µM (inactive) | 15.2 µM (inactive) | 14.4 µM (inactive) | 15.5 µM (inactive) | 14.3 µM (inactive) | 12.2 µM (inactive) | 15.2 µM (inactive) | 19.6 µM (inactive) | 16.4 µM (inactive) | 15 µM (inactive) | 13.5 µM (inactive) | 5.28 µM (inactive) | 13.6 µM (inactive) | 19.5 µM (inactive) | 11.3 µM (inactive) | 14.8 µM (inactive) | – | 14.8 µM (inactive) | 16.9 µM (inactive) |
| Cn1c2ccccc2c(=O)c2c(O)cc3c(c21)C=CC1(CCCCC1)O3 | 9.95 µM (inactive) | > 10 µM (inactive) | > 10 µM (inactive) | 3.85 µM (inactive) | > 10 µM (inactive) | > 10 µM (inactive) | 9.1 µM (inactive) | > 10 µM (inactive) | > 10 µM (inactive) | > 10 µM (inactive) | > 10 µM (inactive) | > 10 µM (inactive) | > 10 µM (inactive) | > 10 µM (inactive) | – | > 10 µM (inactive) | > 10 µM (inactive) | 1.62 µM (inactive) | > 10 µM (inactive) |
| O=C(NNCc1ccccc1O)c1ccccc1O | 11 µM (inactive) | 7.93 µM (inactive) | 7.52 µM (inactive) | 9.38 µM (inactive) | 1.13 µM (inactive) | 9.16 µM (inactive) | 12.5 µM (inactive) | 9.84 µM (inactive) | 0.766 µM (active) | 26 µM (inactive) | 14.4 µM (inactive) | 3.27 µM (inactive) | 3.06 µM (inactive) | 36.6 µM (inactive) | – | 3.48 µM (inactive) | 5.42 µM (inactive) | 8.91 µM (inactive) | 7.71 µM (inactive) |
| O=S(=O)(O)CCS [MESNA] | > 100 µM (inactive) | > 100 µM (inactive) | > 100 µM (inactive) | > 100 µM (inactive) | > 100 µM (inactive) | > 100 µM (inactive) | > 100 µM (inactive) | > 100 µM (inactive) | > 100 µM (inactive) | > 100 µM (inactive) | > 100 µM (inactive) | – | > 100 µM (inactive) | > 100 µM (inactive) | > 100 µM (inactive) | > 100 µM (inactive) | > 100 µM (inactive) | > 100 µM (inactive) | > 100 µM (inactive) |
